As usually defined, the IC50 is the concentration that inhibits the measured activity by half. A high value points to weaker potency in that assay.

For this experiment, the system named is Wnt/β-catenin pathway. The experiment is described as follows: Wnt reporter assay (TCF-Luciferase, Firefly) in DBTRG-05MG cells. To be noted: Homo sapiens, 24 hours after compound addition. Format: cell-based. In a few lines:
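DBTRG-05MG cells carrying a 4×TCF-driven firefly luciferase reporter, kept under Zeocin or Zeocin plus Hygromicin selection. Compounds added 36 hours after plating at 8 points from 60 μM to 0.185 μM (0.6% DMSO), triplicate, for 24 hours. Firefly and Renilla luminescence each expressed as % of control; IC50 from four-parameter sigmoid fit.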
In general terms: A reporter such as luciferase makes a cellular process visible.

Compound `COc1ccc2c(c1)c(=O)n(C[C@H]1CC[C@H](C(=O)Nc3ccc(C)nc3)CC1)c(=O)n2C` [Example 148] registered an IC50 of 0.3 to 30 µM. `COCC(=O)N1CCN(C(=O)[C@H]2CC[C@H](Cn3c(=O)c4cc(OC)ccc4n(C)c3=O)CC2)C[C@@H]1C` [Example 149]: the IC50 lay within 0.3 to 30 µM. The figure for `COc1ccc2c(c1)c(=O)n(C[C@H]1CC[C@H](C(=O)N3CCN(C(=O)C4CC4)[C@H](C)C3)CC1)c(=O)n2C` [Example 150] is 0.3 to 30 µM; for `COCC(=O)N1CCN(C(=O)[C@H]2CC[C@H](Cn3c(=O)c4cc(OC)ccc4n(C)c3=O)CC2)C[C@H]1C` [Example 151] it is 0.3 to 30 µM. Compound `COc1ccc2[nH]c(=O)n(C[C@H]3CC[C@H](C(=O)N4CCN(C(=O)C5CC5)[C@@H](C)C4)CC3)c(=O)c2c1` [Example 152] returned a concentration for half-maximal inhibition (IC50) of 0.3 to 30 µM. As for `COc1ccc2c(c1)c(=O)n(C[C@H]1CC[C@H](C(=O)Nc3cccnc3)CC1)c(=O)n2C` [Example 153], the concentration for half-maximal inhibition (IC50) lay in the range of 0.3 to 30 µM.

`COc1ccc2c(c1)c(=O)n(C[C@H]1CC[C@H](C(=O)Nc3ccc(OC)nc3)CC1)c(=O)n2C` [Example 154] had an IC50 of 0.3 to 30 µM. The figure for `COc1ccc2c(c1)c(=O)n(C[C@H]1CC[C@H](C(=O)Nc3ccc(OC)nc3OC)CC1)c(=O)n2C` [Example 155] is 0.3 to 30 µM; for `COc1ccc2c(c1)c(=O)n(C[C@H]1CC[C@H](C(=O)N3CCN(C(=O)C4CC4)[C@@H](C)C3)CC1)c(=O)n2C` [Example 156] it is 0.3 to 30 µM; for `COc1ccc2[nH]c(=O)n(C[C@H]3CC[C@H](C(=O)N4CCN(C(=O)C5CC5)[C@H](C)C4)CC3)c(=O)c2c1` [Example 157] it is 0.3 to 30 µM. Compound `COc1ccc2[nH]c(=O)n(C[C@H]3CC[C@H](C(=O)N4CCN(C(=O)C5CC5)CC4)CC3)c2n1` [Example 158] yielded an IC50 of 0.3 to 30 µM.

In turn, `COCC(=O)N1CCN(C(=O)[C@H]2CC[C@H](Cn3c(=O)[nH]c4ccc(OC)cc4c3=O)CC2)C[C@@H]1C` [Example 159] registered an IC50 of 0.3 to 30 µM.

Take `COc1ccc2[nH]c(=O)n(C[C@H]3CC[C@H](C(=O)N4CCN(C)C(=O)C4)CC3)c2c1` [Example 160]: the IC50 lay within 0.3 to 30 µM.

Regarding `CCOc1ccc2[nH]c(=O)n(C[C@H]3CC[C@H](C(=O)N4CCN(C(=O)C5CC5)CC4)CC3)c(=O)c2c1` [Example 161], the IC50 lay in the range of 0.3 to 30 µM. Compound `CCOc1ccc2[nH]c(=O)n(C[C@H]3CC[C@H](C(=O)N4CCN(C(=O)C(C)C)CC4)CC3)c(=O)c2c1` [Example 162] gave an IC50 of 0.3 to 30 µM. The figure for `Cn1c(=O)n(C[C@H]2CC[C@H](C(=O)N3CCN(C(=O)C4CC4)CC3)CC2)c2cc(C(F)(F)F)ccc21` [Example 163] is 0.3 to 30 µM; for `Cn1c(=O)n(C[C@H]2CC[C@H](C(=O)N3CCOCC3)CC2)c2c(Cl)cccc21` [Example 164] it is 0.3 to 30 µM.

Turning to `COc1ccc2c(c1)c(=O)n(C[C@H]1CC[C@H](C(=O)Nc3ccncc3)CC1)c(=O)n2C` [Example 165], the IC50 was 0.3 to 30 µM. With `COc1ccc2c(n1)n(C[C@H]1CC[C@H](C(=O)N3CCN(C(=O)C4CC4)CC3)CC1)c(=O)n2C` [Example 166], the IC50 fell in the range of 0.3 to 30 µM. Regarding `COc1ccc2c(n1)n(C[C@H]1CC[C@H](C(=O)N3CCOCC3)CC1)c(=O)n2C` [Example 167], the half-maximal inhibitory concentration (IC50) fell in the range of 0.3 to 30 µM.

In the case of `Cn1c(=O)n(C[C@H]2CC[C@H](C(=O)N3CCN(C(=O)C4CC4)CC3)CC2)c2c(Cl)cccc21` [Example 168], the IC50 lay within 0.3 to 30 µM. For `CN1CCN(C(=O)[C@H]2CC[C@H](Cn3c(=O)n(C)c4ccc(C(F)(F)F)cc43)CC2)CC1=O` [Example 170], the IC50 is 0.3 to 30 µM. As to `COc1ccc2c(c1)c(=O)n(C[C@H]1CC[C@H](C(=O)N3CCN(C(=O)n4ccnc4)CC3)CC1)c(=O)n2C` [Example 171], the half-maximal inhibitory concentration (IC50) fell in the range of 0.3 to 30 µM.

Regarding `COc1ccc2c(c1)c(=O)n(C[C@H]1CC[C@H](C(=O)Nc3ccncc3C)CC1)c(=O)n2C` [Example 172], the IC50 is 0.3 to 30 µM. As for `COc1ccc2c(c1)c(=O)n(C[C@H]1CC[C@H](C(=O)Nc3ccc(F)nc3)CC1)c(=O)n2C` [Example 173], the IC50 is 0.3 to 30 µM. Consider `COc1ccc2c(c1)c(=O)n(C[C@H]1CC[C@H](C(=O)Nc3cncc(F)c3)CC1)c(=O)n2C` [Example 174], for which the 50% inhibitory concentration (IC50) fell in the range of 0.3 to 30 µM. In turn, `CCOC(=O)N1CCN(C(=O)[C@H]2CC[C@H](Cn3c(=O)c4cc(OC)ccc4n(C)c3=O)CC2)CC1` [Example 176] showed a half-maximal inhibitory concentration (IC50) of 0.3 to 30 µM.

Consider `COc1ccc2c(c1)c(=O)n(C[C@H]1CC[C@H](C(=O)Nc3ccnc(OC)c3)CC1)c(=O)n2C` [Example 177], for which the IC50 lay in the range of 0.3 to 30 µM. In turn, `COc1cccc2c1CN(C[C@H]1CC[C@H](C(=O)N3CCN(c4nccs4)CC3)CC1)C(=O)N2` [Example 178] gave an IC50 of 0.3 to 30 µM.

On to `COc1ccc2c(c1)c(=O)n(C[C@H]1CC[C@H](C(=O)N3CCN(C(C)=O)CC3)CC1)c(=O)n2C(F)F` [Example 179], for which the half-inhibitory concentration (IC50) was 0.3 to 30 µM. With `CC(=O)N1CCN(C(=O)[C@H]2CC[C@H](Cn3c(=O)n(C)c4ccc(Cl)cc43)CC2)CC1` [Example 180], the IC50 is 0.3 to 30 µM. Compound `Cn1c(=O)n(C[C@H]2CC[C@H](C(=O)N3CCOCC3)CC2)c2cc(Cl)ccc21` [Example 181] gave an IC50 of 0.3 to 30 µM. For `COC(=O)N1CCN(C(=O)[C@H]2CC[C@H](Cn3c(=O)n(C)c4ccc(OC)cc43)CC2)CC1` [Example 182], the concentration for half-maximal inhibition (IC50) is 0.3 to 30 µM. As for `COCC(=O)N1CCN(C(=O)[C@H]2CC[C@H](Cn3c(=O)n(C)c4ccc(OC)cc43)CC2)CC1` [Example 183], the IC50 was in the range of 0.3 to 30 µM. Consider `COc1ccc2c(c1)n(C[C@H]1CC[C@H](C(=O)N3CCN(C(=O)C(C)C)CC3)CC1)c(=O)n2C` [Example 184], for which the half-inhibitory concentration (IC50) was in the range of 0.3 to 30 µM. Compound `COc1ccc2c(c1)n(C[C@H]1CC[C@H](C(=O)N3CCN(C(=O)c4cncn4C)CC3)CC1)c(=O)n2C` [Example 185] came in with an IC50 of 0.3 to 30 µM. The compound `COc1cc2c(cc1Cl)n(C[C@H]1CC[C@H](C(=O)N3CCOCC3)CC1)c(=O)n2C` [Example 186] displayed an IC50 of 0.3 to 30 µM. As to `COc1ccc2c(c1)c(=O)n(C[C@H]1CC[C@H](C(=O)Nc3ccc4ncccc4c3)CC1)c(=O)n2C` [Example 187], the IC50 fell in the range of 0.3 to 30 µM.

In turn, `COc1ccc2c(c1)c(=O)n(C[C@H]1CC[C@H](C(=O)Nc3cccc4ncccc34)CC1)c(=O)n2C` [Example 188] yielded an IC50 of 0.3 to 30 µM. The figure for `COc1ccc2c(c1)c(=O)n(C[C@H]1CC[C@H](C(=O)Nc3ccc(-c4ncco4)cc3)CC1)c(=O)n2C` [Example 189] is 0.3 to 30 µM. `COc1ccc2c(c1)c(=O)n(C[C@H]1CC[C@H](C(=O)Nc3cnc4ccccn34)CC1)c(=O)n2C` [Example 190] yielded an IC50 of 0.3 to 30 µM. In turn, `COc1cccc(NC(=O)[C@H]2CC[C@H](Cn3c(=O)c4cc(OC)ccc4n(C)c3=O)CC2)c1` [Example 191] gave an IC50 of 0.3 to 30 µM. `COc1ccc2c(c1)n(C[C@H]1CC[C@H](C(=O)N3CCN(C(=O)C4CCCO4)CC3)CC1)c(=O)n2C` (some centres unmarked) [Example 192] yielded an IC50 of 0.3 to 30 µM. `COc1ccc2c(c1)c(=O)n(C[C@H]1CC[C@H](C(=O)Nc3ccon3)CC1)c(=O)n2C` [Example 193] had an IC50 of 0.3 to 30 µM. On to `COc1ccc2c(c1)c(=O)n(C[C@H]1CC[C@H](C(=O)Nc3ccc4nc(C)oc4c3)CC1)c(=O)n2C` [Example 194], for which the IC50 lay in the range of 0.3 to 30 µM. On to `COc1ccc2c(c1)c(=O)n(C[C@H]1CC[C@H](C(=O)N3CCN(c4ccncc4)CC3)CC1)c(=O)n2C` [Example 195], for which the IC50 was 0.3 to 30 µM.

`CCOc1ccc2c(c1)c(=O)n(C[C@H]1CC[C@H](C(=O)Nc3ccncc3)CC1)c(=O)n2C` [Example 196]: the IC50 is 0.3 to 30 µM. Next, `CCOc1ccc2c(c1)c(=O)n(C[C@H]1CC[C@H](C(=O)N3CCN(c4ccncc4)CC3)CC1)c(=O)n2C` [Example 197]: 0.3 to 30 µM; `CCOc1ccc2c(c1)c(=O)n(C[C@H]1CC[C@H](C(=O)N3CCN(C(=O)COC)CC3)CC1)c(=O)n2C` [Example 198]: 0.3 to 30 µM. For the compound `CCOc1ccc2c(c1)c(=O)n(C[C@H]1CC[C@H](C(=O)N3CCN(C(=O)C4CCCC4)CC3)CC1)c(=O)n2C` [Example 199], the 50% inhibitory concentration (IC50) lay in the range of 0.3 to 30 µM. As to `CCOc1ccc2c(c1)c(=O)n(C[C@H]1CC[C@H](C(=O)N3CCN(C(C)=O)CC3)CC1)c(=O)n2C` [Example 200], the IC50 lay in the range of 0.3 to 30 µM. In the case of `COc1ccc2c(c1)c(=O)n(C[C@H]1CC[C@H](C(=O)Nc3cccc4cccnc34)CC1)c(=O)n2C` [Example 201], the IC50 lay within 0.3 to 30 µM. Next, `CC(=O)N1CCN(C(=O)[C@H]2CC[C@H](Cn3c(=O)n(C)c4ccc(C(F)(F)F)cc43)CC2)CC1` [Example 202]: 0.3 to 30 µM; `COC(=O)N1CCN(C(=O)[C@H]2CC[C@H](Cn3c(=O)n(C)c4ccc(C)nc43)CC2)CC1` [Example 203]: 0.3 to 30 µM. With `COCC(=O)N1CCN(C(=O)[C@H]2CC[C@H](Cn3c(=O)n(C)c4ccc(C)nc43)CC2)CC1` [Example 204], the concentration for half-maximal inhibition (IC50) lay in the range of 0.3 to 30 µM.

Regarding `COC(=O)N1CCN(C(=O)[C@H]2CC[C@H](Cn3c(=O)n(C)c4ccc(OC)nc43)CC2)CC1` [Example 205], the IC50 fell in the range of 0.3 to 30 µM. In the case of `CCOc1ccc2c(c1)c(=O)n(C[C@H]1CC[C@H](C(=O)N3CCN(C(=O)c4cncn4C)CC3)CC1)c(=O)n2C` [Example 206], the half-inhibitory concentration (IC50) is 0.3 to 30 µM. The compound `CC(=O)N1CCN(C(=O)[C@H]2CC[C@H](Cn3c(=O)n(C)c4ccc(C)nc43)CC2)CC1` [Example 207] displayed a half-maximal inhibitory concentration (IC50) of 0.3 to 30 µM.

`COCC(=O)N1CCN(C(=O)[C@H]2CC[C@H](Cn3c(=O)n(C)c4ccc(OC)nc43)CC2)CC1` [Example 208] had an IC50 of 0.3 to 30 µM. Take `COc1cccc(NC(=O)[C@H]2CC[C@H](Cn3c(=O)n(C)c4ccc(OC)nc43)CC2)c1` [Example 209]: the IC50 lay within 0.3 to 30 µM. `COc1ccc2c(c1)n(C[C@H]1CC[C@H](C(=O)N3CCN(C(=O)c4cc(C)nn4C)CC3)CC1)c(=O)n2C` [Example 210] returned an IC50 of 0.3 to 30 µM.

Compound `COc1ccc2c(c1)n(C[C@H]1CC[C@H](C(=O)N3CCN(C(=O)c4nccn4C)CC3)CC1)c(=O)n2C` [Example 211] registered an IC50 of 0.3 to 30 µM.

Source of the values: patent publication US8865704B2, “Wnt pathway antagonists” (Siena Biotech S.p.A., priority 2009, dated 2014).
